Measured values published in ChEMBL document CHEMBL1139018, “Acetylenic TACE inhibitors. Part 3: Thiomorpholine sulfonamide hydroxamates” (Bioorg Med Chem Lett, 2006).

What was measured:
[1] = molecular target: T1, Disintegrin and metalloproteinase domain-containing protein 17 (Homo sapiens, UniProt P78536); test: Inhibition of TACE
Interstitial collagenase = molecular target: T2, Interstitial collagenase (Homo sapiens, UniProt P03956); test: Inhibition of MMP1
T2 sequence (P03956 whole entry): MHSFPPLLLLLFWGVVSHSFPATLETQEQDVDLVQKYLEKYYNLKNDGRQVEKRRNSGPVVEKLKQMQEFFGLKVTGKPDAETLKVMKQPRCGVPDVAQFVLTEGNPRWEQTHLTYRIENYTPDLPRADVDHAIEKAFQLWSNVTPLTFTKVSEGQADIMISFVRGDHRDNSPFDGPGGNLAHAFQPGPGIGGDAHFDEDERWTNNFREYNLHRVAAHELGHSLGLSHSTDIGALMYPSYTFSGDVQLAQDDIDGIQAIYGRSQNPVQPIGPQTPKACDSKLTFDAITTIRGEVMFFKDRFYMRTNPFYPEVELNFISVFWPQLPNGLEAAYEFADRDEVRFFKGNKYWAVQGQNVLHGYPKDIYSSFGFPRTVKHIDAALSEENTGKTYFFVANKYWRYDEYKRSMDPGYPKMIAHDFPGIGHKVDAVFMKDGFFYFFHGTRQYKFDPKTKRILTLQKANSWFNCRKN

Collagenase 3 = Collagenase 3 (Homo sapiens, UniProt P45452); test: Inhibition of MMP13
[2] = molecular target: T1, Disintegrin and metalloproteinase domain-containing protein 17; test: Inhibition of LPS-stimulated TNF production in THP cells at 3 uM; format: functional, cell-based
[3] = molecular target: T1, Disintegrin and metalloproteinase domain-containing protein 17; test: Inhibition of LPS-stimulated TNF production in THP cells at 1 uM; format: functional, cell-based
Mus musculus = test: Inhibition of LPS-stimulated TNFalpha production in mouse at 50 mg/kg, po; format: functional
[4] = Bioavailability in mouse at 10 mg/kg; format: ADME, organism-based; settings: in vivo
[5] = Bioavailability in rat at 10 mg/kg; format: ADME, organism-based; settings: in vivo
[6] = Bioavailability in dog at 10 mg/kg; format: ADME, organism-based, Canis lupus familiaris; settings: in vivo

T1 sequence (P78536 whole entry, the tested form may be a part): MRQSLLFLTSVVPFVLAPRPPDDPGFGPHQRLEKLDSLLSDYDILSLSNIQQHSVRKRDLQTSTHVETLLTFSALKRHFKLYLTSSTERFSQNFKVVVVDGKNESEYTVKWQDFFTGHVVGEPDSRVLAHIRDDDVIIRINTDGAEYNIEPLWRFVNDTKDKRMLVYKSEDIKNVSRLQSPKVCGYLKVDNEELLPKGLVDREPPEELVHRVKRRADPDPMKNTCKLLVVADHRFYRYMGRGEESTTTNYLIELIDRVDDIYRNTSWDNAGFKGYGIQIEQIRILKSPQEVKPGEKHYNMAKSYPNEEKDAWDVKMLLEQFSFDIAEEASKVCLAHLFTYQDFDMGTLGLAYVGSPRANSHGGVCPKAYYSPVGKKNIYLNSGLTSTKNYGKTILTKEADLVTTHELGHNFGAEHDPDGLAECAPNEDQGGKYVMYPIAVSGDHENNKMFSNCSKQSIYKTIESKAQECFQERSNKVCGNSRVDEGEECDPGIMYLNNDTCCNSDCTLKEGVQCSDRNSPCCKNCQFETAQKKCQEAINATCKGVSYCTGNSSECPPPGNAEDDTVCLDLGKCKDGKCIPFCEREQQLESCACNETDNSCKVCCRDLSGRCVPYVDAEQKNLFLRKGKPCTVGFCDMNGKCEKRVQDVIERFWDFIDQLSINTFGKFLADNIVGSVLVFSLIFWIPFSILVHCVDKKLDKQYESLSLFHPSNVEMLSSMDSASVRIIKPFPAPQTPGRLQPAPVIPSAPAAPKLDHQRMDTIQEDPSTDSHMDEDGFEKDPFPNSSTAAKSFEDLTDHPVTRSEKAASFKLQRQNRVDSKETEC

Row | SMILES | IC50 [1] [nM] | IC50 (Interstitial collagenase) [nM] | IC50 (Collagenase 3) [nM] | inhibition [2] [%] | inhibition [3] [%] | inhibition in vivo at 50 mg/kg (Mus musculus) [%] | bioavailability [4] [%] | bioavailability [5] [%] | bioavailability [6] [%]
1 | C/C=C/COc1ccc(S(=O)(=O)N2CCSC(C)(C)[C@@H]2C(=O)NO)cc1 | 35 | 7 | 2 | 80 | 50 |  |  |  | 
2 | CC(C)(C)OC(=O)NCCCC#CCOc1ccc(S(=O)(=O)N2CCSC(C)(C)[C@@H]2C(=O)NO)cc1 |  |  | 2 | 27 | 5 |  |  |  | 
3 | CC1(C)SCCN(S(=O)(=O)c2ccc(OCC#CCN)cc2)[C@H]1C(=O)NO |  | 97 | 8 | 40 | 10 |  |  |  | 
4 | CC#CCOc1ccc(S(=O)(=O)N2C[C@H](CN)SC(C)(C)[C@@H]2C(=O)NO)cc1 |  |  |  | 94 | 78 | ≥ 95 |  |  | 
5 | CC(C)(C)OC(=O)NCCC#CCOc1ccc(S(=O)(=O)N2CCSC(C)(C)[C@@H]2C(=O)NO)cc1 | 112 | 300 | 7 | 37 | 14 |  |  |  | 
6 | C#CC#CCOc1ccc(S(=O)(=O)N2CCSC(C)(C)[C@@H]2C(=O)NO)cc1 |  | 6 |  | 88 | 62 |  |  |  | 
7 | CCCCOc1ccc(S(=O)(=O)N2CCSC(C)(C)[C@@H]2C(=O)NO)cc1 | 42 | 7 | 9 | 38 | 11 |  |  |  | 
8 | CC#CCOc1ccc(S(=O)(=O)N2C[C@H](CCO)SC(C)(C)[C@@H]2C(=O)NO)cc1 | 15 | 21 | 23 | 90 | 74 | ≥ 95 |  |  | 
9 | CC#CCOc1ccc(S(=O)(=O)N2CCSC(C)(C)[C@@H]2C(=O)NO)cc1 |  |  |  | 94 | 87 |  | 71 | 5 | 0
10 | CC1(C)SCCN(S(=O)(=O)c2ccc(OCC#CCCCCN)cc2)[C@H]1C(=O)NO |  |  | 7 | 37 | 13 |  |  |  | 
11 | C#CCOc1ccc(S(=O)(=O)N2CCSC(C)(C)[C@@H]2C(=O)NO)cc1 |  | 1 | 1 | 91 | 76 |  |  |  | 
12 | C#CCCOc1ccc(S(=O)(=O)N2CCSC(C)(C)[C@@H]2C(=O)NO)cc1 | 32 | 2 | 1 | 64 | 36 |  |  |  | 
13 | CCCCC#CCOc1ccc(S(=O)(=O)N2CCSC(C)(C)[C@@H]2C(=O)NO)cc1 | 23 | 29 | 7 | 82 | 48 |  |  |  | 
